Source: PubChem BioAssay (NCI)
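Interpolation was linear, between the two tested concentrations surrounding the appropriate level; five concentrations were tested over 48 hours in 96-well plates. At the GI50, growth is halved. The concentration for full growth arrest is given as TGI.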

Columns and labels:
Assay in all cases: DTP human tumour cell line panel, 48 h; in the data active = GI50 below about 0.43 µM; inactive = the rest
MCF7 breast = tested on: MCF7 breast
SNB-19 CNS = tested on: SNB-19 CNS
SF-539 CNS = tested on: SF-539 CNS
BT-549 breast = tested on: BT-549 breast
HS 578T breast = tested on: HS 578T breast
MALME-3M melanoma = tested on: MALME-3M melanoma
MDA-MB-231 breast = tested on: MDA-MB-231 breast
U251 CNS = tested on: U251 CNS
SK-MEL-5 melanoma = tested on: SK-MEL-5 melanoma
RXF 393 renal = tested on: RXF 393 renal
PC-3 prostate = tested on: PC-3 prostate
HCT-116 colon = tested on: HCT-116 colon
M14 melanoma = tested on: M14 melanoma
SNB-75 CNS = tested on: SNB-75 CNS
SF-295 CNS = tested on: SF-295 CNS
NCI-H226 lung = tested on: NCI-H226 lung
HL-60(TB) leukemia = tested on: HL-60(TB) leukemia
RPMI-8226 leukemia = tested on: RPMI-8226 leukemia
CCRF-CEM leukemia = tested on: CCRF-CEM leukemia
SR leukemia = tested on: SR leukemia
DU-145 prostate = tested on: DU-145 prostate
SK-MEL-2 melanoma = tested on: SK-MEL-2 melanoma
SN12C renal = tested on: SN12C renal
UO-31 renal = tested on: UO-31 renal
EKVX NSCLC = tested on: EKVX NSCLC
SK-MEL-28 melanoma = tested on: SK-MEL-28 melanoma
MDA-MB-435 = tested on: MDA-MB-435
HCC-2998 colon = tested on: HCC-2998 colon
NCI-H23 lung = tested on: NCI-H23 lung
K-562 leukemia = tested on: K-562 leukemia
NCI-H460 lung = tested on: NCI-H460 lung
T-47D breast = tested on: T-47D breast
IGROV1 ovarian = tested on: IGROV1 ovarian
HT29 colon = tested on: HT29 colon
COLO 205 colon = tested on: COLO 205 colon
OVCAR-5 ovarian = tested on: OVCAR-5 ovarian
OVCAR-4 ovarian = tested on: OVCAR-4 ovarian
HOP-92 NSCLC = tested on: HOP-92 NSCLC
HCT-15 colon = tested on: HCT-15 colon
KM12 colon = tested on: KM12 colon
OVCAR-3 ovarian = tested on: OVCAR-3 ovarian
HOP-62 NSCLC = tested on: HOP-62 NSCLC
UACC-257 melanoma = tested on: UACC-257 melanoma
MOLT-4 leukemia = tested on: MOLT-4 leukemia
CAKI-1 renal = tested on: CAKI-1 renal
A549 NSCLC = tested on: A549 NSCLC
NCI-H522 lung = tested on: NCI-H522 lung
A498 renal = tested on: A498 renal
SK-OV-3 ovarian = tested on: SK-OV-3 ovarian
LOX IMVI melanoma = tested on: LOX IMVI melanoma
SF-268 CNS = tested on: SF-268 CNS
UACC-62 melanoma = tested on: UACC-62 melanoma
SW-620 colon = tested on: SW-620 colon
NCI/ADR-RES ovarian = tested on: NCI/ADR-RES ovarian
TK-10 renal = tested on: TK-10 renal
ACHN renal = tested on: ACHN renal
786-0 renal = tested on: 786-0 renal
OVCAR-8 ovarian = tested on: OVCAR-8 ovarian

Oc1c(I)cc(I)c2cccnc12
23.5 µM: TGI (SF-539 CNS)
9.52 µM: TGI (NCI-H23 lung)
52.4 µM: TGI (SK-MEL-2 melanoma)
30.8 µM: TGI (IGROV1 ovarian)
13.5 µM: TGI (HCT-116 colon)
25.4 µM: TGI (786-0 renal)
19.9 µM: TGI (MCF7 breast)
47.1 µM: TGI (OVCAR-8 ovarian)
26.8 µM: TGI (HOP-62 NSCLC) | TGI (ACHN renal)
14.2 µM: TGI (CAKI-1 renal)
22.5 µM: TGI (SNB-19 CNS)
21.4 µM: TGI (UO-31 renal)
6.5 µM: TGI (OVCAR-3 ovarian)
45.5 µM: TGI (SN12C renal)
29.8 µM: TGI (RXF 393 renal)
10.4 µM: TGI (NCI-H460 lung)
58 µM: TGI (DU-145 prostate) | TGI (A498 renal)
17 µM: TGI (COLO 205 colon)
7.34 µM: TGI (HCC-2998 colon)
8.13 µM: TGI (SF-295 CNS)
24.6 µM: TGI (OVCAR-5 ovarian)
89.2 µM: TGI (LOX IMVI melanoma)
46.7 µM: TGI (MDA-MB-231 breast)
33.9 µM: TGI (BT-549 breast)
> 100 µM: TGI (HS 578T breast) | TGI (PC-3 prostate) | TGI (SNB-75 CNS) | TGI (HL-60(TB) leukemia) | TGI (RPMI-8226 leukemia) | TGI (CCRF-CEM leukemia) | TGI (SR leukemia) | TGI (SK-MEL-28 melanoma) | TGI (MDA-MB-435) | TGI (K-562 leukemia) | TGI (HT29 colon) | TGI (OVCAR-4 ovarian) | TGI (HCT-15 colon) | TGI (KM12 colon) | TGI (MOLT-4 leukemia) | TGI (A549 NSCLC) | TGI (NCI-H522 lung) | TGI (SW-620 colon)
20.2 µM: TGI (TK-10 renal)
16.5 µM: TGI (SK-MEL-5 melanoma)
25.3 µM: TGI (U251 CNS)
inactive: GI50 (MCF7 breast) 3.89 µM | GI50 (SNB-19 CNS) 3.33 µM | GI50 (SF-539 CNS) 4.16 µM | GI50 (BT-549 breast) 0.833 µM | GI50 (HS 578T breast) 7.24 µM | GI50 (MALME-3M melanoma) 0.573 µM | GI50 (MDA-MB-231 breast) 6.99 µM | GI50 (U251 CNS) 3.74 µM | GI50 (SK-MEL-5 melanoma) 2.4 µM | GI50 (RXF 393 renal) 11.4 µM | GI50 (PC-3 prostate) 4.68 µM | GI50 (HCT-116 colon) 3.09 µM | GI50 (M14 melanoma) 5.27 µM | GI50 (SNB-75 CNS) 15.3 µM | GI50 (SF-295 CNS) 3.1 µM | GI50 (NCI-H226 lung) 4.51 µM | GI50 (HL-60(TB) leukemia) 6.82 µM | GI50 (RPMI-8226 leukemia) 6.96 µM | GI50 (CCRF-CEM leukemia) 6.95 µM | GI50 (SR leukemia) 5.75 µM | GI50 (DU-145 prostate) 8.25 µM | GI50 (SK-MEL-2 melanoma) 8.82 µM | GI50 (SN12C renal) 6.67 µM | GI50 (UO-31 renal) 2.17 µM | GI50 (EKVX NSCLC) 3.38 µM | GI50 (SK-MEL-28 melanoma) 13.2 µM | GI50 (MDA-MB-435) 4.41 µM | GI50 (HCC-2998 colon) 2.44 µM | GI50 (NCI-H23 lung) 2.19 µM | GI50 (K-562 leukemia) 5.01 µM | GI50 (NCI-H460 lung) 2.93 µM | GI50 (T-47D breast) 2.88 µM | GI50 (IGROV1 ovarian) 4.24 µM | GI50 (HT29 colon) 8.91 µM | GI50 (COLO 205 colon) 3.6 µM | GI50 (OVCAR-5 ovarian) 3.57 µM | GI50 (OVCAR-4 ovarian) 3.94 µM | GI50 (HOP-92 NSCLC) 8.48 µM | GI50 (HCT-15 colon) 4.29 µM | GI50 (KM12 colon) 4.69 µM | GI50 (OVCAR-3 ovarian) 2.42 µM | GI50 (HOP-62 NSCLC) 4.85 µM | GI50 (UACC-257 melanoma) 3.53 µM | GI50 (MOLT-4 leukemia) 7.53 µM | GI50 (CAKI-1 renal) 3.17 µM | GI50 (A549 NSCLC) 5.67 µM | GI50 (NCI-H522 lung) 2.96 µM | GI50 (A498 renal) 12.2 µM | GI50 (SK-OV-3 ovarian) 5.17 µM | GI50 (LOX IMVI melanoma) 5.13 µM | GI50 (SF-268 CNS) 5.09 µM | GI50 (UACC-62 melanoma) 3.09 µM | GI50 (SW-620 colon) 3.74 µM | GI50 (NCI/ADR-RES ovarian) 2.48 µM | GI50 (TK-10 renal) 1.68 µM | GI50 (ACHN renal) 4.19 µM | GI50 (786-0 renal) 7.14 µM | GI50 (OVCAR-8 ovarian) 3.35 µM
29.2 µM: TGI (NCI-H226 lung) | TGI (SK-OV-3 ovarian)
35.5 µM: TGI (UACC-257 melanoma)
24.2 µM: TGI (EKVX NSCLC)
48.3 µM: TGI (SF-268 CNS)
8.84 µM: TGI (NCI/ADR-RES ovarian)
83.3 µM: TGI (HOP-92 NSCLC)
15.6 µM: TGI (T-47D breast) | TGI (UACC-62 melanoma)
27.6 µM: TGI (MALME-3M melanoma)
23.7 µM: TGI (M14 melanoma)
